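GI50 = concentration required for 50% inhibition of growth. Definition used: TGI = concentration required for complete inhibition of growth.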
Key:
Assay in all cases: inhibition of tumour cell growth, NCI panel, 384-well format; in the data active = GI50 below about 0.43 µM; inactive = the rest
786-0 renal = tested on: 786-0 renal
A498 renal = tested on: A498 renal
A549 NSCLC = tested on: A549 NSCLC
ACHN renal = tested on: ACHN renal
BT-549 breast = tested on: BT-549 breast
CAKI-1 renal = tested on: CAKI-1 renal
CCRF-CEM leukemia = tested on: CCRF-CEM leukemia
COLO 205 colon = tested on: COLO 205 colon
DU-145 prostate = tested on: DU-145 prostate
HCC-2998 colon = tested on: HCC-2998 colon
HCT-116 colon = tested on: HCT-116 colon
HCT-15 colon = tested on: HCT-15 colon
HL-60(TB) leukemia = tested on: HL-60(TB) leukemia
HOP-62 NSCLC = tested on: HOP-62 NSCLC
HOP-92 NSCLC = tested on: HOP-92 NSCLC
HT29 colon = tested on: HT29 colon
IGROV1 ovarian = tested on: IGROV1 ovarian
K-562 leukemia = tested on: K-562 leukemia
KM12 colon = tested on: KM12 colon
LOX IMVI melanoma = tested on: LOX IMVI melanoma
M14 melanoma = tested on: M14 melanoma
MALME-3M melanoma = tested on: MALME-3M melanoma
MCF7 breast = tested on: MCF7 breast
MDA-MB-231 breast = tested on: MDA-MB-231 breast
MDA-MB-435 melanoma = tested on: MDA-MB-435 melanoma
MDA-MB-468 breast = tested on: MDA-MB-468 breast
MOLT-4 leukemia = tested on: MOLT-4 leukemia
NCI-H226 lung = tested on: NCI-H226 lung
NCI-H23 lung = tested on: NCI-H23 lung
NCI-H322M lung = tested on: NCI-H322M lung
NCI-H460 NSCLC = tested on: NCI-H460 NSCLC
NCI-H522 lung = tested on: NCI-H522 lung
NCI/ADR-RES ovarian = tested on: NCI/ADR-RES ovarian
OVCAR-3 ovarian = tested on: OVCAR-3 ovarian
OVCAR-4 ovarian = tested on: OVCAR-4 ovarian
OVCAR-5 ovarian = tested on: OVCAR-5 ovarian
OVCAR-8 ovarian = tested on: OVCAR-8 ovarian
PC-3 prostate = tested on: PC-3 prostate
RPMI-8226 leukemia = tested on: RPMI-8226 leukemia
RXF 393 renal = tested on: RXF 393 renal
SF-268 CNS = tested on: SF-268 CNS
SF-295 CNS = tested on: SF-295 CNS
SF-539 CNS = tested on: SF-539 CNS
SK-MEL-2 melanoma = tested on: SK-MEL-2 melanoma
SK-MEL-28 melanoma = tested on: SK-MEL-28 melanoma
SK-MEL-5 melanoma = tested on: SK-MEL-5 melanoma
SK-OV-3 ovarian = tested on: SK-OV-3 ovarian
SN12C renal = tested on: SN12C renal
SNB-19 CNS = tested on: SNB-19 CNS
SR leukemia = tested on: SR leukemia
SW-620 colon = tested on: SW-620 colon
T-47D breast = tested on: T-47D breast
TK-10 renal = tested on: TK-10 renal
U251 glioblastoma = tested on: U251 glioblastoma
UACC-257 melanoma = tested on: UACC-257 melanoma
UACC-62 melanoma = tested on: UACC-62 melanoma
UO-31 renal = tested on: UO-31 renal

Cn1cc(S(=O)(=O)N2CCC3=Cc4c(cnn4-c4ccc(F)cc4)C[C@]3(C(=O)c3cc(C(F)(F)F)ccn3)C2)cn1
3.82 µM: TGI (SR leukemia)
55.7 µM: TGI (BT-549 breast)
9.44 µM: TGI (MOLT-4 leukemia)
6.55 µM: TGI (MDA-MB-468 breast)
3.1 µM: TGI (RPMI-8226 leukemia)
12.9 µM: TGI (HL-60(TB) leukemia)
71.1 µM: TGI (MALME-3M melanoma)
> 100 µM: TGI (786-0 renal) | TGI (A498 renal) | TGI (A549 NSCLC) | TGI (ACHN renal) | TGI (CAKI-1 renal) | TGI (CCRF-CEM leukemia) | TGI (COLO 205 colon) | TGI (DU-145 prostate) | TGI (HCC-2998 colon) | TGI (HCT-116 colon) | TGI (HCT-15 colon) | TGI (HOP-62 NSCLC) | TGI (HOP-92 NSCLC) | TGI (HT29 colon) | TGI (IGROV1 ovarian) | TGI (K-562 leukemia) | TGI (KM12 colon) | TGI (LOX IMVI melanoma) | TGI (M14 melanoma) | TGI (MCF7 breast) | TGI (MDA-MB-231 breast) | TGI (MDA-MB-435 melanoma) | TGI (NCI-H226 lung) | TGI (NCI-H322M lung) | TGI (NCI-H460 NSCLC) | TGI (NCI/ADR-RES ovarian) | TGI (OVCAR-3 ovarian) | TGI (OVCAR-4 ovarian) | TGI (OVCAR-5 ovarian) | TGI (OVCAR-8 ovarian) | TGI (PC-3 prostate) | TGI (SF-268 CNS) | TGI (SF-295 CNS) | TGI (SF-539 CNS) | TGI (SK-MEL-2 melanoma) | TGI (SK-MEL-28 melanoma) | TGI (SK-MEL-5 melanoma) | TGI (SK-OV-3 ovarian) | TGI (SN12C renal) | TGI (SNB-19 CNS) | TGI (SW-620 colon) | TGI (T-47D breast) | TGI (TK-10 renal) | TGI (U251 glioblastoma) | TGI (UACC-257 melanoma) | TGI (UACC-62 melanoma) | TGI (UO-31 renal)
8.01 µM: TGI (RXF 393 renal)
81.2 µM: TGI (NCI-H522 lung)
4.6 µM: TGI (NCI-H23 lung)
inactive: GI50 ([…]-0 renal) 66 µM | GI50 (A498 renal) 12.5 µM | GI50 (A549 NSCLC) 8.76 µM | GI50 (ACHN renal) 31.6 µM | GI50 (BT-549 breast) 6.96 µM | GI50 (CAKI-1 renal) 25.6 µM | GI50 (CCRF-CEM leukemia) 4.73 µM | GI50 (COLO 205 colon) > 100 µM | GI50 (DU-145 prostate) > 100 µM | GI50 (HCC-2998 colon) > 100 µM | GI50 (HCT-116 colon) 3.29 µM | GI50 (HCT-15 colon) > 100 µM | GI50 (HL-60(TB) leukemia) 4.66 µM | GI50 (HOP-62 NSCLC) 5.17 µM | GI50 (HOP-92 NSCLC) 11.8 µM | GI50 (HT29 colon) > 100 µM | GI50 (IGROV1 ovarian) 14.1 µM | GI50 (K-562 leukemia) 3.27 µM | GI50 (KM12 colon) 46.6 µM | GI50 (LOX IMVI melanoma) 49 µM | GI50 (M14 melanoma) > 100 µM | GI50 (MALME-3M melanoma) 19.2 µM | GI50 (MCF7 breast) 8.88 µM | GI50 (MDA-MB-231 breast) 53.3 µM | GI50 (MDA-MB-435 melanoma) > 100 µM | GI50 (MDA-MB-468 breast) 1.84 µM | GI50 (MOLT-4 leukemia) 3.09 µM | GI50 (NCI-H226 lung) 20.3 µM | GI50 (NCI-H23 lung) 1.34 µM | GI50 (NCI-H322M lung) > 100 µM | GI50 (NCI-H460 NSCLC) 3.12 µM | GI50 (NCI-H522 lung) 3.19 µM | GI50 (NCI/ADR-RES ovarian) 7.38 µM | GI50 (OVCAR-3 ovarian) 9.32 µM | GI50 (OVCAR-4 ovarian) 3.97 µM | GI50 (OVCAR-5 ovarian) > 100 µM | GI50 (OVCAR-8 ovarian) 46.8 µM | GI50 (PC-3 prostate) 9.49 µM | GI50 (RPMI-8226 leukemia) 0.831 µM | GI50 (RXF 393 renal) 1.98 µM | GI50 (SF-268 CNS) > 100 µM | GI50 (SF-295 CNS) 11.5 µM | GI50 (SF-539 CNS) 54.3 µM | GI50 (SK-MEL-2 melanoma) 42.8 µM | GI50 (SK-MEL-28 melanoma) > 100 µM | GI50 (SK-MEL-5 melanoma) 7.3 µM | GI50 (SK-OV-3 ovarian) 5.8 µM | GI50 (SN12C renal) > 100 µM | GI50 (SNB-19 CNS) > 100 µM | GI50 (SR leukemia) 1.87 µM | GI50 (SW-620 colon) > 100 µM | GI50 (T-47D breast) 3.09 µM | GI50 (TK-10 renal) 78.8 µM | GI50 (U251 glioblastoma) 15.4 µM | GI50 (UACC-257 melanoma) 7.32 µM | GI50 (UACC-62 melanoma) 38.6 µM | GI50 (UO-31 renal) 11.8 µM

— PubChem BioAssay (NCI)
